From patent publication US20140088306A1, “RADIOACTIVE FLUORINE-LABELED QUINOXALINE COMPOUND” (Nihon Medi-Physics Co., Ltd., priority 2012, published 2014) come the findings set out here.

Data set [1] addresses T1, Aβ1-42 aggregates (Homo sapiens, UniProt P05067).
T1 construct: Aβ1-42 aggregates (Peptide Institute, Inc, Osaka) were dissolved in 0.1 mol/L phosphate-buffered saline; purchased Peptide Institute, Inc., Osaka
The experiment in a line: Binding evaluation using Aβ peptide aggregation in solution (Example 13). To be noted: for Ki: inhibition of [^125I]IMPY binding to Aβ1-42 aggregates, value following ± shows SE, read-out: Kl. The protocol:
Aβ1-42 peptide (Peptide Institute, Inc., Osaka) was gently dissolved at a concentration of 0.25 mg/mL in a PBS solution (pH 7.4), which was then incubated at 37° C. for 42 hours to prepare an Aβ1-42 aggregate PBS solution.
Thereafter, the resultant was filtered through Whatman (R) GF/B filter using a Brandell M-24 cell harvester, and the radioactivity of the filter was measured using a γ counter (Wallac 1470 Wizard, from Perkin-Elmer).
The half inhibition concentration (IC50) value was determined from a replacement straight line using GraphPad Prism 5.0, and the inhibition constant (Ki) was calculated using the Cheng-Prusoff equation: the above-described Expression (1).

The subject of data set [2] is amyloid plaques. In words: Autoradiography using postmortem brain section of patient with Alzheimer's disease (Example 7). The class given is binding, human (Alzheimer's disease patient). The note with it: brain section (temporal lobe) of Alzheimer's disease patient; 0.37 MBq/100 μL, 1 hour. The protocol: A postmortem autopsy brain section (temporal lobe) of a patient with Alzheimer's disease was incubated together with each of [^18F]E3, [^18F]D3, [^18F]E1, and [^18F]E2 (0.37 MBq/100 μL each) at room temperature for 1 hour. The resultant was washed with a 50 volume % ethanol aqueous solution (2 minutes×2) and water (2 minutes×2), and after drying, the section was contacted with BAS imaging plate (from Fujifilm Corporation) for 1.5 hours. The image of autoradiography was obtained using BAS5000 scanner system (from Fujifilm Corporation).
A section adjacent to the brain section used was immunostained in the following manner.
First, a paraffin-embedded brain section of the Alzheimer's disease patient (temporal lobe, 6 μm in thickness) was incubated with xylene (15 minutes×2), ethanol (1 minute×2), a 90 volume % ethanol aqueous solution (1 minute×2), and a 70 volume % ethanol aqueous solution (1 minute×1) in that order for complete deparaffinization, and then washed in water (2.5 minutes×2). Thereafter, the section was subjected to autoclave treatment for 15 minutes in 0.01 mol/L citrate buffer solution (pH 6.0). The resultant was incubated in PBS-Tween20 (5 minutes×2), and a mouse anti-Aβ1-42 primary monoclonal antibody (from Wako Pure Chemical Industries Ltd.) was then added thereto, which was then incubated at room temperature overnight. The resultant was incubated in PBS-Tween20 (2 minutes×3), and a biotin-goat anti-mouse IgG (from Funakoshi Co., Ltd.) was then added thereto, which was then incubated at room temperature for 1 hour. The resultant was incubated in PBS-Tween20 (5 minutes×3), and a streptavidin-peroxidase complex (from Funakoshi Co., Ltd.) was added thereto, which was then incubated at room temperature for 30 minutes. In addition, the resultant was incubated in PBS-Tween20 (2 minutes×3); 3,3′-diaminobenzidine was added thereto, which was then incubated at room temperature for 30 minutes; and after washing with water, the section was observed under a microscope to provide an immunostained image (FIG. 10).

Data set [3] in a line: In vivo radioactivity distribution experiment (Example 8). The note with it: ddY mice, tail vein, SD in parenthesis. Here is the method:
Through the tail vein of ddY mice (male, 5 week-old) was injected each of a 10 volume % ethanol-containing saline solution of [^18F]E3 (45.4 kBq, 100 μL), a 10 volume % ethanol-containing saline solution of [^18F]D3 (38.2 kBq, 100 μL), a 10 volume % ethanol-containing saline solution of [^18F]E1 (45.1 kBq, 100 μL), and a 10 volume % ethanol-containing saline solution of [^18F]E2 (40.6 kBq, 100 μL). Five mice were used for each group and sacrificed 2, 10, 30, and 60 minutes after administration to remove major organs. The blood and organs were weighed and further measured for radioactivity using a γ counter. The amount of radioactivity per unit mass was measured in each organ to evaluate radioactivity distribution.

T1 sequence (P05067 672-713 limits assumed): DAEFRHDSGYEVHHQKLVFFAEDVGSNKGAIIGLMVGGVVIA

With `Nc1ccc(-c2cnc3cc(OCCF)ccc3n2)cc1` [Compound D1, 4-(6-(2-Fluoroethoxy)quinoxalin-2-yl)aniline], the Ki in data set [1] is 242 ± 29 nM.
`CNc1ccc(-c2cnc3cc(OCCF)ccc3n2)cc1` [Compound D2, 4-(6-(2-Fluoroethoxy)quinoxalin-2-yl)-N-methylaniline]: the “binding affinity relative to D1” value in data set [1] (Ki of D2 compared with D1) was ≥ 10 times. In addition, in data set [1], the Ki worked out at 15.7 ± 1.28 nM.
Regarding `CNc1ccc(-c2cnc3ccc(OCC[18F])cc3n2)cc1` [[^18F]E2, 4-(7-(2-[^18F]Fluoroethoxy)quinoxalin-2-yl)-N-methylaniline], the “visualization of gray matter / amyloid plaques by autoradiography” value in data set [2] is recorded as “did not visualize the gray matter but rather strongly visualized the white matter”. Also, in data set [3] (2 min. after), the “Radioactivity Amount, Blood” value is listed as 3.37 (0.46) % injected dose/g; the “Radioactivity Amount, Bone” value was 1.86 (0.53) % injected dose/g; the “Radioactivity Amount, Brain” value is 5.96 (0.48) % injected dose/g; the “Radioactivity Amount, Heart” value was 7.42 (0.53) % injected dose/g. Also, in data set [3] (2 min. after), the “Radioactivity Amount, Intestine” value is 3.46 (0.75) % injected dose/g; the “Radioactivity Amount, Kidney” value is 11.8 (2.51) % injected dose/g; the “Radioactivity Amount, Liver” value was 6.84 (1.50) % injected dose/g; the “Radioactivity Amount, Lung” value is listed as 6.71 (0.24) % injected dose/g. Besides, in data set [3] (2 min. after), the “Radioactivity Amount, Pancreas” value was 5.42 (0.13) % injected dose/g; the “Radioactivity Amount, Spleen” value is given as 2.71 (0.44) % injected dose/g; the “Radioactivity Amount, Stomach*” value is listed as 1.13 (0.18) % injected dose per organ. In addition, in data set [3] (10 min. after), the “Radioactivity Amount, Blood” value is 3.83 (1.24) % injected dose/g; the “Radioactivity Amount, Bone” value is 1.91 (0.54) % injected dose/g; the “Radioactivity Amount, Brain” value was 3.77 (0.40) % injected dose/g; the “Radioactivity Amount, Heart” value is reported as 4.41 (0.17) % injected dose/g. In addition, in data set [3] (10 min. after), the “Radioactivity Amount, Intestine” value was 12.5 (2.77) % injected dose/g; the “Radioactivity Amount, Kidney” value is 7.55 (0.36) % injected dose/g; the “Radioactivity Amount, Liver” value is 11.7 (0.58) % injected dose/g; the “Radioactivity Amount, Lung” value is recorded as 4.98 (0.56) % injected dose/g. Moreover, in data set [3] (10 min. after), the “Radioactivity Amount, Pancreas” value was 4.91 (0.95) % injected dose/g; the “Radioactivity Amount, Spleen” value is 4.53 (0.62) % injected dose/g; the “Radioactivity Amount, Stomach*” value was 2.11 (0.55) % injected dose per organ. In data set [3] (30 min. after), the “Radioactivity Amount, Blood” value is recorded as 3.10 (0.34) % injected dose/g; the “Radioactivity Amount, Bone” value was 2.07 (3.97) % injected dose/g; the “Radioactivity Amount, Brain” value is given as 2.18 (0.22) % injected dose/g; the “Radioactivity Amount, Heart” value is 8.53 (12.0) % injected dose/g. In data set [3] (30 min. after), the “Radioactivity Amount, Intestine” value is listed as 20.3 (2.55) % injected dose/g; the “Radioactivity Amount, Kidney” value is given as 3.92 (0.45) % injected dose/g; the “Radioactivity Amount, Liver” value is 7.95 (1.32) % injected dose/g; the “Radioactivity Amount, Lung” value is on record as 3.34 (0.55) % injected dose/g. In addition, in data set [3] (30 min. after), the “Radioactivity Amount, Pancreas” value is given as 2.60 (0.25) % injected dose/g; the “Radioactivity Amount, Spleen” value is 3.33 (0.66) % injected dose/g; the “Radioactivity Amount, Stomach*” value was 1.56 (0.34) % injected dose per organ. Also, in data set [3] (60 min. after), the “Radioactivity Amount, Blood” value is 3.40 (0.32) % injected dose/g; the “Radioactivity Amount, Bone” value is listed as 2.36 (1.16) % injected dose/g; the “Radioactivity Amount, Brain” value is reported as 1.91 (0.15) % injected dose/g; the “Radioactivity Amount, Heart” value is on record as 3.92 (0.64) % injected dose/g. In data set [3] (60 min. after), the “Radioactivity Amount, Intestine” value was 22.1 (2.95) % injected dose/g; the “Radioactivity Amount, Kidney” value was 3.12 (0.41) % injected dose/g; the “Radioactivity Amount, Liver” value is on record as 6.95 (0.68) % injected dose/g; the “Radioactivity Amount, Lung” value is reported as 4.06 (0.99) % injected dose/g. In data set [3] (60 min. after), the “Radioactivity Amount, Pancreas” value is listed as 2.73 (0.31) % injected dose/g; the “Radioactivity Amount, Spleen” value is reported as 3.17 (0.62) % injected dose/g; the “Radioactivity Amount, Stomach*” value is reported as 2.73 (2.44) % injected dose per organ.
